Measured values: patent publication US4760201A (Exxon Research & Engineering Co., priority 1986, dated 1988)
Several values for one entry are separate records, joined by “and”; a condition that tells them apart may be missing. Identical values can stand only once. Like-named read-outs stand apart in the source and are kept apart here.

Legend:
[1] = Batch extraction of sec-butyl alcohol (SBA) from acid/alcohol feedstream by aliphatic acids; SBA in light phase; type: physicochemical; details: AS 56.7%, ES 0.5
Description: Thereafter, the thus-formed acid/alcohol […] contacted with the selected amount of a carboxylic acid solvent of this invention, and the results thereby obtained are reported in the associated tables below.

[2] = Effect of solvent/feed ratio on selectivity of extraction (H2O/SBA in upper layer); details: 25° C., AS 56.7%, ES 0.5
Description: (§1) In a series of runs, separate portions of the acid/alcohol feedstreams were contacted with the indicated amount of octanoic acid for extraction of sec-butyl alcohol (SBA) therefrom using the indicated contacting temperatures, employing a 60 ml. separatory funnel, with agitation, and employing 3 hours of setting time. The weight percent sec-butyl alcohol in the light phase (i.e., the upper layer comprising the octanoic acid layer) was then analyzed.

[3] = Procedure: The liquids thus passed to the extraction unit were preheated each to a temperature of 60° C. The reciprocating plate column was provided with a hot water heating jacket maintained at 60° C. […] The liquids thereby accumulated were each analyzed by gas chromatography and nuclear magnetic resonance spectroscopy (NMR) for component identification.
[4] = Comparative runs: partitioning of SBOH and water into neodecanoic acid from aqueous sec-butanol free of sulfuric acid
Description: as §1

[5] = Partitioning of alcohol into neodecanoic acid from sulfuric acid/alcohol feedstreams (Examples 14-21); details: AS 60%, 60° C.

In the case of `CC(C)(C)CCC(=O)O` [neoheptanoic acid], the “SBA in Light Phase” value ([1]; Table 9, 25 °C, vol:vol 1.0:1) is reported as 5.04 wt. %, the “SBA in Light Phase” value ([1]; Table 9, 60 °C, vol:vol 1.0:1) is reported as 7.82 wt. % and the “selectivity of extraction” value [2] is reported as “high selectivity for alcohol extraction”. The “wt:wt. ratio H2O/SBA In Upper Layer” value ([2]; solvent/feed 0.4 (v/v)) was 0.099 wt:wt, the “wt:wt. ratio H2O/SBA In Upper Layer” value ([2]; solvent/feed 1.0 (v/v)) was 0.054 wt:wt and the “wt:wt. ratio H2O/SBA In Upper Layer” value ([2]; solvent/feed 1.5 (v/v)) was 0.045 wt:wt. For the same compound, the “wt:wt. ratio H2O/SBA In Upper Layer” value ([2]; solvent/feed 2.0 (v/v)) was 0.067 wt:wt.

In the case of butene, the “Overall Partition Coefficients, Wt. Fract. (concentration in light phase / in heavy phase)” value [3] is reported as > 2000.

With `O` [Water, water] the “Overall Partition Coefficients, Wt. Fract. (concentration in light phase / in heavy phase)” value [3] was 0.012.

With `CCC(C)OC(C)CC` (stereo not drawn) [SBE, secondary butyl ether] the “Overall Partition Coefficients, Wt. Fract. (concentration in light phase / in heavy phase)” value [3] was 81.2.

For `CCCCCCCC(=O)O` [octanoic acid], the “SBA in Light Phase” value ([1]; Run 8-1, 60 °C, v:v solvent:feed 1.0) was 9.91 wt. %, the “SBA in Light Phase” value ([1]; Run 8-2, 60 °C, v:v solvent:feed 2.0) was 7.20 wt. % and the “SBA in Light Phase” value ([1]; Run 8-3, 25 °C, v:v solvent:feed 0.2) was 7.38 wt. %. For the same compound, the “SBA in Light Phase” value ([1]; Run 8-4, 25 °C, v:v solvent:feed 0.4) was 7.57 wt. %, the “SBA in Light Phase” value ([1]; Run 8-5, 25 °C, v:v solvent:feed 1.0) was 6.15 wt. % and the “SBA in Light Phase” value ([1]; Run 8-6, 25 °C, v:v solvent:feed 1.5) was 5.37 wt. %. For the same compound, the “SBA in Light Phase” value ([1]; Run 8-7, 25 °C, v:v solvent:feed 2.0) was 4.54 wt. %, the “SBA in Light Phase” value ([1]; Table 9, 25 °C, vol:vol 1.0:1) was 6.15 wt. % and the “SBA in Light Phase” value ([1]; Table 9, 60 °C, vol:vol 1.0:1) was 9.91 wt. %. The “selectivity of extraction” value [2] was “increasing amounts of water being removed”, the “wt:wt. ratio H2O/SBA In Upper Layer” value ([2]; solvent/feed 0.2 (v/v)) was 0.066 wt:wt and 0.079 wt:wt and the “wt:wt. ratio H2O/SBA In Upper Layer” value ([2]; solvent/feed 0.4 (v/v)) was 0.055 wt:wt. The “wt:wt. ratio H2O/SBA In Upper Layer” value ([2]; solvent/feed 1.0 (v/v)) was 0.067 wt:wt and the “wt:wt. ratio H2O/SBA In Upper Layer” value ([2]; solvent/feed 2.0 (v/v)) was 0.101 wt:wt.

For `CCC(C)O` (stereo not drawn) [SBOH, sec-butyl alcohol], the “Overall Partition Coeff. SBOH” value ([4]; Comparative Example I, 25° C., start SBOH 47.8 wt %) was 4.1, the “Overall Partition Coeff. SBOH” value ([4]; Comparative Example II, 25° C., start SBOH 7.3 wt %) was 2.2 and the “Overall Partition Coeff. SBOH” value ([4]; Comparative Example III, 25° C., start SBOH 63.9 wt %) was 4.0. For the same compound, the “Overall Partition Coeff. SBOH” value ([4]; Comparative Example IV, 25° C., start SBOH 13.9 wt %) was 2.2, the “Overall Partition Coeff. SBOH” value ([4]; Comparative Example IX, 60° C., start SBOH 28.3 wt %) was 6.0 and the “Overall Partition Coeff. SBOH” value ([4]; Comparative Example V, 60° C., start SBOH 45.3 wt %) was 6.0. The “Overall Partition Coeff. SBOH” value ([4]; Comparative Example VI, 60° C., start SBOH 7.4 wt %) was 4.4, the “Overall Partition Coeff. SBOH” value ([4]; Comparative Example VII, 60° C., start SBOH 61.7 wt %) was 6.4 and the “Overall Partition Coeff. SBOH” value ([4]; Comparative Example VIII, 60° C., start SBOH 13.5 wt %) was 4.5. For the same compound, the “Overall Partition Coefficients, Wt. Fract. (concentration in light phase / in heavy phase)” value ([3]; Table 1, residence time 3.52 hours, solvent-to-feed 2.04:1, E.S. 1, A.S. 55%, 60° C.) was 1.26, the “Overall Partition Coefficients, Wt. Fract. (concentration in light phase / in heavy phase)” value ([3]; Table 2, residence time 3.62, solvent-to-feed 2.098:1, E.S. 1, A.S. 55%, 60° C.) was 0.83 and the “Overall Partition Coefficients, Wt. Fract. (concentration in light phase / in heavy phase)” value ([3]; Table 3, residence time 3.66 hours, solvent-to-feed 2.043:1, E.S. 1, A.S. 55%, 60° C.) was 1.15. For the same compound, the “Overall Partition Coefficients, Wt. Fract. (concentration in light phase / in heavy phase)” value ([3]; Table 4, residence time 3.66 hrs, solvent-to-feed 2.11:1, solvent feed temp. 30° C., E.S. 1, A.S. 55%, 60° C.) was 4.51, the “Overall Partition Coefficients, Wt. Fract. (concentration in light phase / in heavy phase)” value ([3]; Table 5, residence time 3.37 hrs, solvent-to-feed 1.23:1, E.S. 1, A.S. 55%, 60° C.) was “.627” and the “Overall Partition Coefficients, Wt. Fract. (concentration in light phase / in heavy phase)” value ([3]; Table 6, residence time 3.60 hrs, solvent-to-feed 2.06:1, E.S. 1, A.S. 60%, 60° C.) was 0.340. For the same compound, the “Overall Partition Coefficients, Wt. Fract. (concentration in light phase / in heavy phase)” value ([3]; Table 7, residence time 3.77 hrs, solvent-to-feed 1.38:1, E.S. 1, A.S. 60 wt. %, 60° C.) was 0.267, the “Overall Partition Coeff. SBOH” value ([5]; Example 14, ES 0.2, NDA/SBOH 15.6) was 0.3 and the “Overall Partition Coeff. SBOH” value ([5]; Example 15, ES 0.2, NDA/SBOH 3.9) was 0.35. For the same compound, the “Overall Partition Coeff. SBOH” value ([5]; Example 16, ES 0.2, NDA/SBOH 7.9) was 0.33, the “Overall Partition Coeff. SBOH” value ([5]; Example 17, ES 0.2, NDA/SBOH 23.2) was 0.31 and the “Overall Partition Coeff. SBOH” value ([5]; Example 18, ES 0.2, NDA/SBOH 4.7) was 1.35. For the same compound, the “Overall Partition Coeff. SBOH” value ([5]; Example 19, ES 1.0, NDA/SBOH 1.3) was 0.25, the “Overall Partition Coeff. SBOH” value ([5]; Example 20, ES 1.0, NDA/SBOH 2.6) was 0.24 and the “Overall Partition Coeff. SBOH” value ([5]; Example 21, ES 1.0, NDA/SBOH 7.9) was 0.34.
